Values quoted from earlier work, collected in US20260041939A1, “METHODS FOR THE TREATMENT OF HY[…] TRANSCRANIAL-FOCUSED-ULTRASOUND” (SUNNYBROOK RESEARCH INSTITUTE, priority 2022, published 2026).

Tested on: c-FOS expression
Settings: microinjection into the tuberomammillary nucleus of rats

Structure (SMILES): CCCC(C)C1(CC)C(=O)NC(=O)NC1=O (stereo not drawn) [Pentobarbital, pentobarbital]
- c-FOS expression in the locus coeruleus: unchanged
- c-FOS expression in the tuberomammillary nucleus: suppress
- c-FOS expression in the ventrolateral preoptic nucleus (VLPO): increase
